The text below walks through data of patent publication US9963474B2, “Mitochondria-targeted dicarbonyl sequestering compounds” (MEDICAL RESEARCH COUNCIL, priority 2013, dated 2018).

SMILES strings stand for the structures.

The conditions of data set [1]: 25° C., literature [49]; cited from earlier work.
The nature of data set [2]: Stability of compounds assessed by RP-HPLC. The class given is physicochemical. As to conditions: 37° C., one week, RP-HPLC. As to the method:
(§1) RP-HPLC was performed using a Gilson 321 pump with a C18 column (Jupiter 300 Å, Phenomenex) with a Widepore C18 guard column (Phenomenex). Samples (1 ml) were injected through a 0.22 μm PVDF filter (Millex, Millipore). HPLC buffer A [0.1% TFA in water] and HPLC buffer B (90% acetonitrile and 0.1% TFA) were used and a gradient was run at 1 ml/min at room temperature as follows: 0-2 min—5% B; 2-17 min—5-100% B; 17-19 min—100% B; 19-22 min—100-5% B. Peaks were detected by absorbance at 220 nm (UV/Vis 151, Gilson) and by fluorescence (excitation and emission wavelengths of 344 and 433 nm; RF-10AXL, Shimadzu). Partition coefficients between PBS and octan-1-ol were determined as previously described.
The syntheses of MitoG, its predicted quinoxaline products upon reaction with methylglyoxal and glyoxal, and their deuterated versions are summarized in FIG. 2. As expected, the spectrum of MitoG was a summation of those of the phenylenediamine, hexyloxyphenylenediamine (HP), and a simple alkylTPP salt.
The expected products of the reaction of MitoG with methylglyoxal (MQE) and glyoxal (QE) were synthesized and have UV/Vis absorption spectra distinct from that of MitoG (FIG. 3B). Both QE and MQE were fluorescent, while MitoG was not (FIG. 3C). The three compounds were resolved by RP-HPLC (FIG. 3D) although the MQE regioisomers (MQE1, MQE2; FIG. 1B) were not distinguished. Both MQE and QE were stable after one week at 37° C. as assessed by RP-HPLC (data not shown). It was concluded that MitoG is sufficiently stable for biological experiments involving trapping of glyoxal and methylglyoxal within mitochondria in cells and in vivo, and the reaction products MQE and QE were both robustly stable for chemical isolation and subsequent LC-MS/MS analyses.

Data set [3] can be described thus: Partition coefficients between PBS and octan-1-ol. The class given is physicochemical. Conditions: means ± SE of 3 determinations. How it is done:
as §1

For the compound `Nc1ccccc1N` [o-phenylenediamine], the “rate constant for reaction with methylglyoxal, reported value” in data set [1] was 1.7 ± 0.3 M⁻¹ s⁻¹.
Regarding `Cc1cnc2cc(OCCCCCC[P+](c3ccccc3)(c3ccccc3)c3ccccc3)ccc2n1.O=C([O-])C(F)(F)F` [MQE, (6-(6-(2-Methyl-quinoxalinyloxy))hexyl)triphenylphosphonium trifluoroacetate], the “stability after one week” value in data set [2] is reported as “stable”. Further, in data set [3], the Partition coefficient amounted to 12.3 ± 0.5.
For `O=C([O-])C(F)(F)F.c1ccc([P+](CCCCCCOc2ccc3nccnc3c2)(c2ccccc2)c2ccccc2)cc1` [QE, (6-(6-Quinoxalinyloxy)hexyl)triphenylphosphonium trifluoroacetate], the “stability after one week” value in data set [2] is “stable”. Further, the logD in data set [3] (octan-1-ol/PBS, read-out: Partition coefficient (converted)) was 1.13.
